The subject of data set [1] is PAK in LPL or GPIHBP-1 silenced cells. In words: In vitro phagocytosis assay in LPL or GPIHBP-1 silenced cells. It is filed as cell-based. Conditions: 1 h after infection. How it is done: For immunofluorescence-based measurement of phagocytosis and clearance, BMDMs were grown on glass coverslips in 24-well plates. The cells were infected with PAK (MOI, 50) for different time intervals and then were treated with 10 μg/ml gentamycin for 30 minutes to remove extracellular PAK attached to the cell surface. The infected cells were washed with ice-cold PBS several times, followed by fixing for 10 minutes at room temperature in methanol or 10% paraformaldehyde. The cells were stained with anti-Pseudomonas antibody (Abcam) and then were incubated with goat anti-rabbit IgG secondary antibody conjugated with Alexa Fluor 488. […]
For measurement of phagocytosis by flow cytometry, PAK was heat-killed and stained with 10 μM of SYTO9 (Thermo Scientific™) at room temperature for 30 minutes and then was extensively washed with ice-cold PBS several times. The staining dose of PAK was determined by flow cytometry. […] The fluorescence of extracellular PAK attached to the cell surface was quenched by replacing the medium with PBS containing 0.2% trypan blue.
For CFU counting-based phagocytosis and bacterial killing assay, PAK was cultured at 37° C. overnight with continuous shaking and was resuspended in PBS. […] The diluted aliquots were spread on LB agar plates, and CFU was counted after incubation of the plates overnight at 37° C.

A short description of data set [2]: PLAG uptake in the cisterna chyli (TG colorimetric assay). It is filed as in vivo, mice. How it is done: Balb/c mice were purchased from Koatech Co. (Pyungtaek, Republic of Korea) and maintained under specific pathogen-free conditions. All animal experimental procedures were performed in accordance with the Guide for the Care and Use of Laboratory Animals. The study included 30 male Balb/c mice (mean age: 9 weeks, range: 8 to 10 weeks). For the time point study (experiment 1), mice were divided into 5 groups, with 3 mice per group. Mice were given a single administration of PLAG orally (2500 mg/kg BW) in a volume of 150 μL. And then mice are sacrificed after various time intervals, 0, 15, 30 and 60 minutes. To determine the difference in PLAG concentration (experiment 2), mice were divided into 5 groups, with 3 mice per group. They were given a single administration of PLAG orally (50, 250, 500, and 2500 mg/kg BW) in a volume of 150 μL, then sacrificed after 1 h post-injection.
The blood sample was obtained under anesthesia by heart puncture. Serum samples were separated by centrifuge 3,000 rpm for 10 minutes and stored at −80° C. for analysis. Lymph fluid from the cisterna chyli was collected according to the methods described by Masayuki, lymph fluid in cisterna chyli appears milky white color with a high concentration of triglyceride (TG) and located along the abdominal vena cava and aorta on the cranial side of the renal vein. A 30 ½-gauge syringe was carefully inserted into cisterna chyli. Then recovered the lymphatic fluid, diluted liquid with 10 uL of phosphate-buffered saline (Welgene, Gyeongsangbuk-do, Republic of Korea). Diluted lymph fluid samples were kept frozen for assay.
Triglyceride in blood and lymph fluid was measured using a commercial assay kit (Wako Diagnostics, Osaka, Japan). Because PLAG has structural similarities to TGs containing glycerol backbone, this method may be applicable to PLAG detection. Multi calibrator lipids (Wako) were used for standard reagent. The absorbance was read at 650 nm using an ELISA microplate reader (Molecular Devices Corporation).
2500mpk of PLAG was orally administered to diet mice whose body weight is 25 g, absorbed PLAG was collected from cisterna chyli at 1 hr. Absorbed PLAG was evaluated by TG colorimetric assay. The TG concentration was multiplied by the dilution factor and the conversion factor, which is the coefficient required to convert to triglyceride concentration to the PLAG concentration. Administered 62.5 mg of PLAG was absorbed through enterocytes and detected 28.2 mg of PLAG at cisterna chyli within 1 hour with about 50% of absorptive efficacy (FIG. 21E).

Data set [3] has as its system gemcitabine-induced neutropenia. Conditions: cited from earlier work.

SMILES strings stand for the structures. “Also recorded” adds a separate entry of the source.

Regarding `CCCCC/C=C\C/C=C\CCCCCCCC(=O)OC(COC(C)=O)COC(=O)CCCCCCCCCCCCCCC` (racemic) [PLAG, 1-palmitoyl-2-linoleoyl-3-acetylglycerol], the “PLAG effect on enhanced bacterial phagocytosis in silenced cells” value in data set [1] was “enhances neither phagocytosis nor bacterial killing; also recorded: abrogated”. The “PLAG detected at cisterna chyli / lymph fluid” value in data set [2] (62.5 mg administered (2500mpk, 25 g mice), 1 hr) is 28.2 mg. Besides, the “time absorbed PLAG observed at the cisterna chyli” value in data set [2] (50, 250, 500, 2500mpk, dose-dependent) was no more than 1 h. For the same compound, the “time PLAG detected in cisterna chyli” value in data set [2] (2500mpk, mice fasted 6 hours) is 60 min. The absorptive efficacy entry in data set [2] (cisterna chyli within 1 hour) is “about 50%”. Further, the gemcitabine-induced neutropenia result in data set [3] (Jeong et al., 2019) is “attenu¬ated the neutropenia”. For the same compound, the “anti-cancer effect of gemcitabine” value in data set [3] (athymic nude mice implanted with a human myeloma cell line) is reported as “did not interfere”.
